Assay results as given in US20070219208A1, “Methods for Treating Cancer” (priority 2006, published 2007).
“Also recorded” adds a separate entry of the source.

What was measured:
Assay type in all cases: cell-based
iNOS in MCF-7 cells = test: iNOS mRNA (RT-PCR) and protein (Western) levels; conditions: mevalonate 20 μM
Procedure: After treatment with statins, cells were washed with ice-cold DPBS and resuspended in 150 μl of radioimmune precipitation assay buffer (20 mM Tris-HCl, pH 7.4, 2.5 mM EDTA, 1% Triton X-100, 1% sodium deoxycholate, 1% SDS, 100 mM NaCl, 100 mM sodium fluoride) containing 1 mM sodium vanadate, 10 μg/ml aprotinin, 10 μg/ml leupeptin, and 10 μg/ml pepstatin inhibitors. Cells were homogenized by passing the suspension through a 25-gauge needle (20 strokes). The lysate was centrifuged at 750×g for 10 min at 4° C. to pellet out the nuclei. The remaining supernatant was centrifuged for 30 min at 12,000×g. Protein was determined using the Lowry method and 50 μg of the lysate was used for the Western blot analysis. Proteins were resolved using the SDS-polyacrylamide gels and blotted onto nitrocellulose membranes. Membranes were washed with TBS (140 mM NaCl, 50 mM Tris-HCl, pH 7.2) containing 0.1% Tween 20 (TBST) and 5% skim milk to block the non-specific protein binding. Membranes were incubated with 1 μg/ml rabbit anti-iNOS polyclonal antibody (Abeam, Cambridge, Mass.), mouse anti-cyclin D1 antibody, mouse anti-cyclin E antibody (BD Biosciences, San Jose, Calif.) or rabbit anti-p27 antibody (Chemicon International, Temecula, Calif.) in TBST for overnight at 4° C., washed 5 times with TBST, and then incubated with goat anti-rabbit or rabbit anti-mouse IgG-horseradish peroxidase-conjugated secondary antibody (1:5,000) for 1.5 h at room temperature. The band was detected using the ECL method (Amersham Biosciences).
Following the treatments, medium was aspirated and 1 ml of TRIzol reagent (Invitrogen) was added and total RNA was extracted using the manufacturer's protocol. Five μg of RNA was used for the first strand cDNA synthesis using a first strand cDNA synthesis kit (Amersham Biosciences). […]

[1] = tested on: NO2-/NO3- levels in MCF-7 cells; test: Nitrite and nitrate measurements by chemiluminescence (NO analyzer); conditions: with simvastatin or fluvastatin (10 μM), 40 h; mevalonate 20 μM, 1400 W 10 μM, sepiapterin 50 μM; compared to statin alone
Procedure: Briefly, following treatments, cells were washed three times with DPBS after aspirating the medium. To this, 1 ml of Hanks' balanced salt mixture containing 25 μM L-arginine was added and incubated for 30 min at 37° C. The medium was collected and centrifuged for 5 min at 5000 rpm, and 50 μl of the clear supernatant was used for nitrate and nitrite analysis. Each sample was analyzed in triplicate.

MCF-7 cells [2] = test: Cell cycle analysis by flow cytometry; conditions: 1400 W 10 μM, mevalonate 20 μM
Procedure: For DNA content analysis, harvested cells were centrifuged at 1,000×g for 5 min, fixed by the gradual addition of ice-cold 70% ethanol, and washed with PBS. Cells were then treated with RNase (10 μg/mL) for 30 min at 37° C., washed once with PBS, and resuspended and stained in 1 mL of 69 μmol/L propidium iodide in 38 mmol/L sodium citrate for 30 min at room temperature. The cell cycle phase distribution was determined by analytic DNA flow cytometry as described in (Vindelov L, et al. Methods Cell Biol, 33:127-37, 1990). The percentage of cells in each phase of the cell cycle was analyzed using a Modfit software (Verity Software House, Topsham, Me.).
As NO has previously been reported to exert tumor cell cycle alterations (Pervin S, et al. Natl Acad Sci USA 98:3583-3588, 2001), we investigated the cytostatic effect of statins in MCF-7 cells. MCF-7 cells were treated with simvastatin and fluvastatin for […] in the presence and absence of 1400 W (10 μM) and mevalonate (20 μM). Cell cycle progression was examined using FACScan flow cytometry analysis. […] As cell cycle progression from […] involves activations of the cell regulatory proteins, cyclins D and E, we investigated the effects of statins and iNOS inhibitor on the cell cycle proteins. […]

[3] = tested on: cyclin D1, cyclin E and p27 in MCF-7 cells; test: Cell cycle protein levels by Western analysis (cyclin D1, cyclin E, p27); conditions: 1400 W 10 μM or mevalonate 20 μM
Procedure: A (Table): The cell cycle distribution of MCF-7 cells treated with either simvastatin or fluvastatin (5-10 μM) for 40 h in the presence or 1400 W (10 μM) or mevalonate (20 μM). The cell sorting was performed by flow cytometry as described in “Materials and Methods.” B: Cells were treated with simvastatin or fluvastatin (10 μM) in the presence or absence of 1400 W (10 μM) or mevalonate (20 μM) for 40 h and cyclins D1 and E protein levels were measured by the Western analysis using the corresponding polyclonal or monoclonal antibodies. Data are representative of three separate experiments.
After treatment with statins, cells were washed with ice-cold DPBS and resuspended in 150 μl of radioimmune precipitation assay buffer (20 mM Tris-HCl, pH 7.4, 2.5 mM EDTA, 1% Triton X-100, 1% sodium deoxycholate, 1% SDS, 100 mM NaCl, 100 mM sodium fluoride) containing 1 mM sodium vanadate, 10 μg/ml aprotinin, 10 μg/ml leupeptin, and 10 μg/ml pepstatin inhibitors. Cells were homogenized by passing the suspension through a 25-gauge needle (20 strokes). The lysate was centrifuged at 750×g for 10 min at 4° C. to pellet out the nuclei. The remaining supernatant was centrifuged for 30 min at 12,000×g. Protein was determined using the Lowry method and 50 μg of the lysate was used for the Western blot analysis. […] The band was detected using the ECL method (Amersham Biosciences).

MCF-7 cells [4] = test: Soft agar assay for colony formation (anchorage-independent growth); conditions: 1400 W 10 μM or mevalonate 20 μM with statin 10 μM
Procedure: Soft Agar Assay for Colony Formation:
After cells were treated with various conditions, they were seeded in six-well plates. The plates were first covered with phenol red-free MEM containing 0.6% agar and 10% FBS. The middle layer contained cells (5×10^3) in phenol red-free MEM with 0.35% agar and 10% FBS. The top layer, consisting of the medium, was added to prevent drying of the agar in the plates. The plates were incubated for 21 days, after which the plates were stained in 0.5 ml of 0.005% crystal violet for 1 h and the cultures were inspected and photographed. The colony efficiency (CE) was determined by a count of the number of colonies greater than […] in diameter, which was calculated as the average of colonies counted at 50× magnification in five individual fields manually (Liu S, et al. Oncogene, 23:1256-62, 2004).
The long-term effects of statins and the inhibitors on the proliferation and survival of MCF-7 cells were determined using clonogenic assays (Ramanathan B, et al. Cancer Res, 65:8455-60, 2005). The extent of malignancy of cells corresponds to the attainment of anchorage-independent growth (Liu S, et al. Oncogene, 23:1256-62, 2004). MCF-7 cells were treated with simvastatin or fluvastatin in the presence or absence of either 1400 W or mevalonate or sepiapterin. In separate experiments, cells were treated with either GGTI-298 or FTI-277. At the end of the treatments, approximately 5×10^3 cells were seeded onto a soft agar to determine their clonogenic efficiency after 21 days. […] In the presence of either 1400 W or mevalonate, the colony formation was restored in statin-treated cells (FIG. 6B).

For CC(O)(CCO)CC(=O)O (centres unmarked) [mevalonate], the “effect on statin-induced iNOS” value (iNOS in MCF-7 cells) was “inhibited”, the “effect on statin-induced NO / NO2-/NO3- levels” value [1] was “inhibited; also recorded: suppressed” and the “effect on statin-induced cell cycle alterations” value (MCF-7 cells [2]) was “almost completely reversed”. The “effect on statin-induced decrease of cyclin D1 and cyclin E” value [3] was “restored in part” and the “colony formation in statin-treated cells in the presence of modulator” value (MCF-7 cells [4]) was “restored”.
